# Measurements: publication PMC11813896, “Bis(7)-harmine derivatives as potential multi-target anti-Alzheimer agents” (Frontiers in Chemistry, 2025)
# Read-outs that look alike come from different tables or passages of the source.
# Experiments:
# [1] = tested on: Aβ; parameters: method as in Boländer et al., 2012; details: ref Boländer et al., 2012; read-out: IC50 for inhibiting Aβ aggregation (bis-(arylvinyl)pyrazines); cited from earlier work
# [2] = tested on: Tau; parameters: method as in Boländer et al., 2012; details: ref Boländer et al., 2012; read-out: IC50 for inhibiting tau protein phosphorylation (bis-(arylvinyl)pyrazines); cited from earlier work
# [3] = tested on: MAO-A; details: 2023, cited from earlier work
# [4] = tested on: MAO-B; parameters: method as in Du et al., 2023; Haider et al., 2018; details: ref Du et al., 2023; Haider et al., 2018; read-out: MAO-B (compound 6 of Figure 1); cited from earlier work
# [5] = tested on: BuChE; details: read-out: BuChE (harmine, Figure 1); ref Beato et al., 2021; Li et al., 2023; cited from earlier work
# [6] = molecular target: T1, recombinant hMAO-B (Homo sapiens, UniProt P27338); assay: biochemical; details: read-out: inhibition of hMAO-B in primary screening
# T1 construct: purchased Sigma-Aldrich
# T1 sequence (P27338 1-520): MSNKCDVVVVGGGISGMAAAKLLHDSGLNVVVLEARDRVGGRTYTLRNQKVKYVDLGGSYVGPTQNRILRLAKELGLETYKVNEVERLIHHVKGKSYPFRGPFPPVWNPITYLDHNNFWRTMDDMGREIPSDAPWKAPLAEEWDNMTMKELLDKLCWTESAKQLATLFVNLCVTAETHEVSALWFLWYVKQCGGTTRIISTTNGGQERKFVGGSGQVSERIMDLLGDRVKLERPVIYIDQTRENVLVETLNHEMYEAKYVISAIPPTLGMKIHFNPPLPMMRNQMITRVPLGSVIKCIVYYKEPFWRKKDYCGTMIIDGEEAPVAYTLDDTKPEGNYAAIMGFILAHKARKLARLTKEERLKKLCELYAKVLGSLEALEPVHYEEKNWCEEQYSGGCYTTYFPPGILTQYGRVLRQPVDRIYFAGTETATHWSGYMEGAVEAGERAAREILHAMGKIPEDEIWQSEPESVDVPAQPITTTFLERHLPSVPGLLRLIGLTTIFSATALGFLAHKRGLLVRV
# Protocol: Briefly, the compounds under investigation and the reference inhibitor were preincubated with kynuramine at 37°C for 10 min in 96-well microplates. […] The enzymatic reactions were terminated by adding 400 μL of 2 N NaOH and 1,000 μL of water, followed by centrifugation at 16,000 g for 10 min. Subsequently, the concentrations of MAOs that produced 4-hydroxyquinoline were determined by measuring the fluorescence of the supernatant using a Varioskan Flash Multimode Reader ([…]) with excitation and emission wavelengths set at 310 nm and 400 nm, respectively. The IC50 values were calculated from dose-response curves and expressed as the mean ± standard deviation. These values were determined based on at least three independent experiments, each performed in triplicate.
# [7] = molecular target: hBuChE (Homo sapiens, UniProt P06276); assay: Ellman's assay, hBuChE inhibition; assay type: biochemical; details: read-out: inhibition of hBuChE in primary screening
# Protocol: The Ellman’s assay was utilized to assess the inhibitory potential of novel bis(7)-harmine derivatives against hAChE and hBuChE. 50 μL of hAChE (0.02 unit/mL) or hBChE (0.02 unit/mL) were incubated with 10 μL of the compound in 96-well plates at 37°C for 6 min. Subsequently, 30 μL of a substrate solution containing acetylthiocholine iodide (ATCI) or butyrylthiocholine iodide (BTCI) at a concentration of 0.01 M was added, and the mixture was further incubated at 37°C for an additional duration of 12 min. Finally, the activity was measured by adding 150 μL of a solution containing 5,5′−dithiobis (2-nitrobenzoic acid) (DTNB) at a concentration of 0.01 M, followed by measuring absorbance at a wavelength of 415 nm using an Evolution 300 PC UV-Vis Spectrophotometer.
# [8] = tested on: AChE; details: read-out: AChE (harmine, Figure 1); ref Beato et al., 2021; Li et al., 2023; cited from earlier work
# [9] = molecular target: hAChE (Homo sapiens, UniProt P22303); assay: biochemical; details: read-out: inhibition of hAChE in primary screening
# Protocol: 50 μL of hAChE (0.02 unit/mL) or hBChE (0.02 unit/mL) were incubated with 10 μL of the compound in 96-well plates at 37°C for 6 min. Subsequently, 30 μL of a substrate solution containing acetylthiocholine iodide (ATCI) or butyrylthiocholine iodide (BTCI) at a concentration of 0.01 M was added, and the mixture was further incubated at 37°C for an additional duration of 12 min.
# [10] = tested on: GSK-3β; parameters: method as in Beato et al., 2021; Li et al., 2023; details: read-out: GSK-3β (harmine, Figure 1); ref Beato et al., 2021; Li et al., 2023; cited from earlier work
# Chain of hAChE (P22303 32-614): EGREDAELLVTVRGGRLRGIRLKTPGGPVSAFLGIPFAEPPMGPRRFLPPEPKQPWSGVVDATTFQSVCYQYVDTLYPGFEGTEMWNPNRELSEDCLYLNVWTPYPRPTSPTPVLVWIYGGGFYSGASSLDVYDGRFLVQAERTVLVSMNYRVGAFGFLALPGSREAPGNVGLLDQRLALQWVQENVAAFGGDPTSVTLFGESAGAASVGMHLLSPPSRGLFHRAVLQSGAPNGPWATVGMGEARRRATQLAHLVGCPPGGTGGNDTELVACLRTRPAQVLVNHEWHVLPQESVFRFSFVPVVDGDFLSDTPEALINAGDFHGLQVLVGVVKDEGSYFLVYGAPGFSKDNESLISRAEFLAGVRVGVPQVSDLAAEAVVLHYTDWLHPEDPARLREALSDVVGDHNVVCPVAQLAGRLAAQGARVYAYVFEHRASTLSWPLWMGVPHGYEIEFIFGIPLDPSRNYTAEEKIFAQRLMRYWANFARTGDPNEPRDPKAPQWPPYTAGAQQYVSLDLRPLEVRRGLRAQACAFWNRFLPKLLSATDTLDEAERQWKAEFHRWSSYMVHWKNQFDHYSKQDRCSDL
# Chain of hBuChE (P06276 29-602): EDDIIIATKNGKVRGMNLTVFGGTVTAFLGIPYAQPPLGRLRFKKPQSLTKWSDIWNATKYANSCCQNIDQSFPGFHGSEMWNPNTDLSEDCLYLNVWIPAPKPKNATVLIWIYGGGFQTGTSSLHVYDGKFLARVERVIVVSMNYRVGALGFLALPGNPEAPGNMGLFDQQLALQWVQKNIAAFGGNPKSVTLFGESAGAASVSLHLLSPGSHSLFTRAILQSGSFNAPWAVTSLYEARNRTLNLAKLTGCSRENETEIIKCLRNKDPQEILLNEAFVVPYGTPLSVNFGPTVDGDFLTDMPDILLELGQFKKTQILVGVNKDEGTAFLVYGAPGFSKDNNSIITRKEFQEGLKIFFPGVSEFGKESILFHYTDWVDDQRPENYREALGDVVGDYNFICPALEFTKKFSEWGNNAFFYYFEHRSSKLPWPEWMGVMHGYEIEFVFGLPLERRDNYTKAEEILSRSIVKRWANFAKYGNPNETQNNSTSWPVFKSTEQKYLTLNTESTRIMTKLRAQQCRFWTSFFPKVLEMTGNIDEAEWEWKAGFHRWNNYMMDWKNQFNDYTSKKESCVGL
smiles,measurement,setting,value
"COc1ccc(/C=C/c2cnc(/C=C/c3ccc(OC)cc3)cn2)cc1 [Compound 3, Bis-(arylvinyl)-pyrazines]",IC50,[1],17 nM
same,IC50,[2],13 nM
Cc1nccc2c1[nH]c1cc(OCc3cn(Cc4ccccc4Cl)nn3)ccc12 [Compound 6],IC50,"[3]; ref Du et al., Haider et al., 2018, read-out: MAO-A (compound 6 of Figure 1)",830 nM
same,IC50,[4],260 nM
COc1ccc2c(c1)[nH]c1c(C)nccc12 [Harmine],IC50,"[3]; read-out: MAO-A (harmine, Figure 1), ref Beato et al., 2021, Li et al.",380 nM
same,IC50,[5],75100 nM
same,inhibition at 1 µM,[6],23.5%
same,inhibition at 1 µM,[7],23.5%
same,IC50,[8],9050 nM
same,inhibition at 1 µM,[9],30.9%
same,IC50,[10],31300 nM
